Laboratory results: patent publication US20240383875A1, “Benzimidazole Pyridine Derivatives” (Hoffmann-La Roche Inc., priority 2022, published 2024)

How the values were obtained:
Format in all cases: biochemical
SIK3 = SIK3 (Homo sapiens, UniProt Q9Y2K2); assay: Enzymatic activity assay SIK3, RapidFire mass spectrometry (phosphorylation of CHK-peptide); settings: RapidFire MS, inhibition of SIK3; read-out: SIK3 RF IC50
Outline: (§1)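 Compounds (12-point, 3-fold, generally 30 μM to 170 pM) were pre-incubated 30 min at ambient temperature with SIK1 (5 nM), SIK2 (0.5 nM) or SIK3 (1.5 nM) in HEPES pH 7.0/magnesium acetate buffer. CHK-peptide (10 μM solution) and ATP (100 μM solution) were then added for 45 min before formic acid quench.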

SIK1 = SIK1 (Homo sapiens, UniProt P57059); assay: Enzymatic activity assay SIK1, RapidFire mass spectrometry (phosphorylation of CHK-peptide); settings: RapidFire MS, inhibition of SIK1; read-out: SIK1 RF IC50
Outline: as §1

SIK2 = SIK2 (Homo sapiens, UniProt Q9H0K1); assay: Enzymatic activity assay SIK2, RapidFire mass spectrometry (phosphorylation of CHK-peptide); settings: RapidFire MS, inhibition of SIK2; read-out: SIK2 RF IC50
Outline: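 SIK2 (0.5 nM) in pH 7.0 HEPES buffer with 10 mM Mg acetate phosphorylates CHK-peptide (10 μM solution) with 100 μM ATP solution, 45 min ambient, then formic acid quench.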

SIK1, sequence (P57059 whole entry): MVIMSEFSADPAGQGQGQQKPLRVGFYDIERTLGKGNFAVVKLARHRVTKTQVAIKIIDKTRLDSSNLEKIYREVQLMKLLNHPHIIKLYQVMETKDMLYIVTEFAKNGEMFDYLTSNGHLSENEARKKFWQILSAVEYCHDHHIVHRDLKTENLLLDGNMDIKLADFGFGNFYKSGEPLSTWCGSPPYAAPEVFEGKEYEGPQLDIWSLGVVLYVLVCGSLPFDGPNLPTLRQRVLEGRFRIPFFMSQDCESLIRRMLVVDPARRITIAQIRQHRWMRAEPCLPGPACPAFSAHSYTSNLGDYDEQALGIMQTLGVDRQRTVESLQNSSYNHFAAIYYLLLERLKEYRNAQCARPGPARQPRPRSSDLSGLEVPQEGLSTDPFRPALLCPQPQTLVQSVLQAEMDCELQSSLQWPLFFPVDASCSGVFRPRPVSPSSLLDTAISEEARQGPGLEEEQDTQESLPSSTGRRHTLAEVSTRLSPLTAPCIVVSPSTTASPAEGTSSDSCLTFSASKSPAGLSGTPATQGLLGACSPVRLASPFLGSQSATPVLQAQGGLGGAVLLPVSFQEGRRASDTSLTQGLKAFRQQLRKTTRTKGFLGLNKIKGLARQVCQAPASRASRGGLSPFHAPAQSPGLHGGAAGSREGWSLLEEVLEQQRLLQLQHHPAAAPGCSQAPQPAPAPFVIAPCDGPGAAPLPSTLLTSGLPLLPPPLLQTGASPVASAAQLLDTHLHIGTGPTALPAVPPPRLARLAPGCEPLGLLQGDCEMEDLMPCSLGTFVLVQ
SIK2, sequence (Q9H0K1 whole entry): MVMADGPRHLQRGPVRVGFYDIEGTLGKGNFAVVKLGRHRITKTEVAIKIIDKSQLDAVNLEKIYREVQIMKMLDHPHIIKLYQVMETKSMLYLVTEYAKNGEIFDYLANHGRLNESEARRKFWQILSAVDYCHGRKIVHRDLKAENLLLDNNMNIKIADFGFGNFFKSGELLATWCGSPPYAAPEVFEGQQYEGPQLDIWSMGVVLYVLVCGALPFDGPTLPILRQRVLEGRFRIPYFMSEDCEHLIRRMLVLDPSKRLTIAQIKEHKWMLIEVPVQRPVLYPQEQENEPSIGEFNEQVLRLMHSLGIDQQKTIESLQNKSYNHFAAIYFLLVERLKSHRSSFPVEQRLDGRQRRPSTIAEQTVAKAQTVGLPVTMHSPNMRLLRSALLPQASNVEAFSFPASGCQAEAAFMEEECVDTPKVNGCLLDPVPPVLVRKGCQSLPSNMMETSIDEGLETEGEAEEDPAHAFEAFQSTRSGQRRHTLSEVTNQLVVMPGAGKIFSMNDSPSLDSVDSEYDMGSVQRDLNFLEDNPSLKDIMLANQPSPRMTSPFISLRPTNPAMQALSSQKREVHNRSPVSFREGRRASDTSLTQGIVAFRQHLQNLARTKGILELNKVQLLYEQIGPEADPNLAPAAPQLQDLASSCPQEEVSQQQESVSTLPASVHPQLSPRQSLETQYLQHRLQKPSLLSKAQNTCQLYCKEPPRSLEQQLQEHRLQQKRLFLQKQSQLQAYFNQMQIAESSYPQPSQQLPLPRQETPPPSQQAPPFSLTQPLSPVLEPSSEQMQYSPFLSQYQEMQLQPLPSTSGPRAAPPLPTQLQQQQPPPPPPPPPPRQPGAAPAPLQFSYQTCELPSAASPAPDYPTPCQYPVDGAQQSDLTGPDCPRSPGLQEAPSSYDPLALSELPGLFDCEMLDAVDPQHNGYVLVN
SIK3, sequence (Q9Y2K2 whole entry): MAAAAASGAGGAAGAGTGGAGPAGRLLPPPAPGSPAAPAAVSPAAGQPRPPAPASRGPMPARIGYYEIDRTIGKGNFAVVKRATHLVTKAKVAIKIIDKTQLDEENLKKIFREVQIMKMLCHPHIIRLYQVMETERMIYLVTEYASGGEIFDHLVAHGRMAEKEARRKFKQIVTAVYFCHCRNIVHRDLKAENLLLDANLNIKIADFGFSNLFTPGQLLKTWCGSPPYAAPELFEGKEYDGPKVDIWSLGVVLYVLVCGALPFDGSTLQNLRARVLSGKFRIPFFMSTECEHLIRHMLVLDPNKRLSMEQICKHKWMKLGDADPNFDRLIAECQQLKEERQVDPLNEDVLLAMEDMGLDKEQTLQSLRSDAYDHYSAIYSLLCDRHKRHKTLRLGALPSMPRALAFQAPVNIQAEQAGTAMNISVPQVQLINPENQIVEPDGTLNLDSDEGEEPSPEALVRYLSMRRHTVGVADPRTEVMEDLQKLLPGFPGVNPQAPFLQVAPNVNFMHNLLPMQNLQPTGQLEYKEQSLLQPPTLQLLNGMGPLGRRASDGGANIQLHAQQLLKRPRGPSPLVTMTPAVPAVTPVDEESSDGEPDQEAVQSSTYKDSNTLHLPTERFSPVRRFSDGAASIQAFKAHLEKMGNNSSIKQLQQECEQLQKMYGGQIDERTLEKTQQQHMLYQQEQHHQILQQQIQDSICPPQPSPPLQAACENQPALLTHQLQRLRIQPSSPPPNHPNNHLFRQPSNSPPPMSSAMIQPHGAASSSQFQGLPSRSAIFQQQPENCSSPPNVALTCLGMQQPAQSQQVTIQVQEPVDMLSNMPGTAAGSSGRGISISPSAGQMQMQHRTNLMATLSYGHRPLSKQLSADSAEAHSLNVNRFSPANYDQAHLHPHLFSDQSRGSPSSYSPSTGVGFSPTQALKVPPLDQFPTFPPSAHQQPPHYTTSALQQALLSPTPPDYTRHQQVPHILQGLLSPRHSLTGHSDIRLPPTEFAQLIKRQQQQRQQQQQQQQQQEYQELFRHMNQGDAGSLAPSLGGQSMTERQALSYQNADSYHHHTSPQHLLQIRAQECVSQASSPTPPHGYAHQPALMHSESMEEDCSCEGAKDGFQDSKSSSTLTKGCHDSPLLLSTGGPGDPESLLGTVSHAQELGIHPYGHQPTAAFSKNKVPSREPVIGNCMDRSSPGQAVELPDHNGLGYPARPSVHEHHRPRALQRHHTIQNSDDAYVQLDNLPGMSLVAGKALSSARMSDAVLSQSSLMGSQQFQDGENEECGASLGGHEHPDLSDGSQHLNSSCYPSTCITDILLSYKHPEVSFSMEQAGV

| Structure (SMILES) | IC50 (SIK3) [nM] | IC50 (SIK1) [nM] | IC50 (SIK2) [nM] |
| --- | --- | --- | --- |
| Cc1cc(C#N)nn1-c1nc(-n2cnc3cc(CN4CCCS4(=O)=O)ccc32)ccc1C(C)O (stereo not drawn) [Example 201, 1-[6-[5-[(1,1-Dioxo-1,2-thiazolidin-2-yl)methyl]benzimidazol-1-yl]-3-(1-hydroxyethyl)-2-pyridyl]-5-methyl-pyrazole-3-carbonitrile] | 321 | 111 | 62.1 |
| Cc1cc(C#N)nn1-c1nc(-n2cnc3ccc(CN4CCCS4(=O)=O)cc32)ccc1C(C)O (stereo not drawn) [Example 202, 1-[6-[6-[(1,1-Dioxo-1,2-thiazolidin-2-yl)methyl]benzimidazol-1-yl]-3-(1-hydroxyethyl)-2-pyridyl]-5-methyl-pyrazole-3-carbonitrile] | 205 | 1020 | 500 |
| COc1c(O)cccc1-c1nc(-n2cnc3cc(Nc4ccc(C)nn4)ccc32)ccc1C(C)O (stereo not drawn) [Example 203, 3-[3-(1-Hydroxyethyl)-6-[5-[(6-methylpyridazin-3-yl)amino]benzimidazol-1-yl]-2-pyridyl]-2-methoxy-phenol; formic acid] | 55.4 | 14400 | 520 |
| Cc1ccc(Nc2ccc3c(c2)ncn3-c2ccc(C(C)O)c(-c3ccoc3C#N)n2)nn1 (stereo not drawn) [Example 204, 3-[3-(1-Hydroxyethyl)-6-[5-[(6-methylpyridazin-3-yl)amino]benzimidazol-1-yl]-2-pyridyl]furan-2-carbonitrile] | 34.4 | 9950 | 141 |
| Cc1cc(C#N)nn1-c1nc(-n2cnc3cc(Nc4ccc(OCCN5CCS(=O)(=O)CC5)nn4)ccc32)ccc1C(C)O (stereo not drawn) [Example 206, 1-[6-[5-[[6-[2-(1,1-Diketo-1,4-thiazinan-4-yl)ethoxy]pyridazin-3-yl]amino]benzimidazol-1-yl]-3-(1-hydroxyethyl)-2-pyridyl]-5-methyl-pyrazole-3-carbonitrile] | 5.3 | 72 | 4.5 |
| Cc1ccc(Nc2ccc3c(c2)ncn3-c2ccc(C(C)O)c(O[C@H]3CCNC3)n2)nn1 (stereo partly drawn) [Example 208, 1-[6-[5-[(6-Methylpyridazin-3-yl)amino]benzimidazol-1-yl]-2-[(3S)-pyrrolidin-3-yl]oxy-3-pyridyl]ethanol] | 4.8 | 462 | 29.7 |
| Cc1cc(C#N)nn1-c1nc(-n2cnc3ccc(CN4CCCC4=O)cc32)ccc1C(C)O (stereo not drawn) [Example 212, 1-[3-(1-Hydroxyethyl)-6-[6-[(2-oxopyrrolidin-1-yl)methyl]benzimidazol-1-yl]-2-pyridyl]-5-methyl-pyrazole-3-carbonitrile] | 1580 | 453 | 292 |
| Cc1cc(C#N)nn1-c1nc(-n2cnc3cc(CN4CCCC4=O)ccc32)ccc1C(C)O (stereo not drawn) [Example 213, 1-[3-(1-Hydroxyethyl)-6-[5-[(2-oxopyrrolidin-1-yl)methyl]benzimidazol-1-yl]-2-pyridyl]-5-methyl-pyrazole-3-carbonitrile] | 174 | 7580 | 1520 |
| Cc1cc(C#N)nn1-c1nc(-n2cnc3ccc(CN4CCCCC4=O)cc32)ccc1C(C)O (stereo not drawn) [Example 215, 1-[3-(1-Hydroxyethyl)-6-[6-[(2-oxo-1-piperidyl)methyl]benzimidazol-1-yl]-2-pyridyl]-5-methyl-pyrazole-3-carbonitrile] | 1860 | 347 | 371 |
| Cc1cc(C#N)nn1-c1nc(-n2cnc3cc(CN4CCCCC4=O)ccc32)ccc1C(C)O (stereo not drawn) [Example 216, 1-[3-(1-Hydroxyethyl)-6-[5-[(2-oxo-1-piperidyl)methyl]benzimidazol-1-yl]-2-pyridyl]-5-methyl-pyrazole-3-carbonitrile] | 476 | 10800 | 2240 |
| Cc1ccc(Nc2ccc3c(c2)ncn3-c2ccc(C(C)O)c(-c3ccc(O)cc3C#N)n2)nn1 (stereo not drawn) [Example 220, 5-Hydroxy-2-[3-(1-hydroxyethyl)-6-[5-[(6-methylpyridazin-3-yl)amino]benzimidazol-1-yl]-2-pyridyl]benzonitrile; formic acid] | 46.2 | 6740 | 154 |
| Cc1ccc(Nc2ccc3c(c2)ncn3-c2ccc(C(C)O)c(-c3cc(C(F)(F)F)n[nH]c3=O)n2)nn1 (stereo not drawn) [Example 223, 5-[3-(1-Hydroxyethyl)-6-[5-[(6-methylpyridazin-3-yl)amino]benzimidazol-1-yl]-2-pyridyl]-3-(trifluoromethyl)-1H-pyridazin-6-one; formic acid] | 335 | > 30000 | 1570 |
| Cc1ccc(Nc2ccc3c(c2)ncn3-c2ccc(C(C)O)c(-c3occc3C#N)n2)nn1 (stereo not drawn) [Example 226, 2-[3-(1-Hydroxyethyl)-6-[5-[(6-methylpyridazin-3-yl)amino]benzimidazol-1-yl]-2-pyridyl]furan-3-carbonitrile] | 21.7 | > 30000 | 62.1 |
| Cc1ccc(Nc2ccc3c(c2)ncn3-c2ccc(C(C)O)c(-c3ccnn3C3CC3(F)F)n2)nn1 (stereo not drawn) [Example 227, 1-[2-[2-(2,2-Difluorocyclopropyl)pyrazol-3-yl]-6-[5-[(6-methylpyridazin-3-yl)amino]benzimidazol-1-yl]-3-pyridyl]ethanol; formic acid] | 28.6 | 4170 | 225 |
| Cc1ccc(Nc2ccc3c(c2)ncn3-c2ccc([C@@H](C)O)c(-n3nc(C(F)F)cc3C)n2)nn1 [Example 230, (1R)-1-[2-[3-(Difluoromethyl)-5-methyl-pyrazol-1-yl]-6-[5-[(6-methylpyridazin-3-yl)amino]benzimidazol-1-yl]-3-pyridyl]ethanol] | 19.7 | 7090 | 72.4 |
| COCC(O)c1ccc(-n2cnc3ccc(Nc4ccc(C)nn4)cc32)nc1-n1nc(C#N)cc1C (stereo not drawn) [Example 235, 1-[3-(1-Hydroxy-2-methoxy-ethyl)-6-[6-[(6-methylpyridazin-3-yl)amino]benzimidazol-1-yl]-2-pyridyl]-5-methyl-pyrazole-3-carbonitrile] | 201 | 647 | 245 |

Stronger by IC50 (SIK3), values ahead:

| IC50 (SIK3) [nM] | IC50 (SIK1) [nM] | IC50 (SIK2) [nM] | Structure (SMILES) |
| --- | --- | --- | --- |
| 0.3 | 3 | 0.3 | Cc1ccc(Nc2ccc3c(c2)ncn3-c2ccc(C(C)O)c(-n3nc(C#N)c4c3CCNC4)n2)nn1 (stereo not drawn) [Example 205, 1-[3-(1-Hydroxyethyl)-6-[5-[(6-methylpyridazin-3-yl)amino]benzimidazol-1-yl]-2-pyridyl]-4,5,6,7-tetrahydropyrazolo[4,3-c]pyridine-3-carbonitrile] |
| 2.6 | 27 | 3.7 | Cc1cc(C#N)nn1-c1nc(-n2cnc3cc(Nc4ccc(OC5COC5)nn4)ccc32)ccc1C(C)O (stereo not drawn) [Example 207, 1-[3-(1-Hydroxyethyl)-6-[5-[[6-(oxetan-3-yloxy)pyridazin-3-yl]amino]benzimidazol-1-yl]-2-pyridyl]-5-methyl-pyrazole-3-carbonitrile] |
| 3.5 | 1430 | 20.7 | COc1cc(C)n(-c2nc(-n3cnc4cc(Nc5ccc(C)nn5)ccc43)ccc2C(C)O)n1 (stereo not drawn) [Example 214, 1-[2-(3-Methoxy-5-methyl-pyrazol-1-yl)-6-[5-[(6-methylpyridazin-3-yl)amino]benzimidazol-1-yl]-3-pyridyl]ethanol; formic acid] |
| 4.2 | 2200 | 6.8 | Cc1cc(C(=O)N(C)C)c(Nc2ccc3c(c2)ncn3-c2ccc(C(C)O)c(-n3nc(C#N)cc3C)n2)nn1 (stereo not drawn) [Example 219, 3-[[1-[6-(3-Cyano-5-methyl-pyrazol-1-yl)-5-(1-hydroxyethyl)-2-pyridyl]benzimidazol-5-yl]amino]-N,N,6-trimethyl-pyridazine-4-carboxamide] |
| 0.9 | 91 | 1 | Cc1cc(C#N)nn1-c1nc(-n2cnc3cc(Nc4ccc(C5COC5)nn4)ccc32)ccc1C(C)O (stereo not drawn) [Example 228, 1-[3-(1-Hydroxyethyl)-6-[5-[[6-(oxetan-3-yl)pyridazin-3-yl]amino]benzimidazol-1-yl]-2-pyridyl]-5-methyl-pyrazole-3-carbonitrile] |
| 0.4 | 223 | 1.5 | Cc1ccc(Nc2ccc3c(c2)ncn3-c2ccc([C@H](C)O)c(-n3nc(C(F)F)cc3C)n2)nn1 [Example 229, (1S)-1-[2-[3-(Difluoromethyl)-5-methyl-pyrazol-1-yl]-6-[5-[(6-methylpyridazin-3-yl)amino]benzimidazol-1-yl]-3-pyridyl]ethanol] |
| 2 | 1050 | 12.9 | Cc1ccc(Nc2ccc3c(c2)ncn3-c2ccc(C(C)O)c(-n3nc(C)cc3C(F)F)n2)nn1 (stereo not drawn) [Example 231, 1-[2-[5-(difluoromethyl)-3-methyl-pyrazol-1-yl]-6-[5-[(6-methylpyridazin-3-yl)amino]benzimidazol-1-yl]-3-pyridyl]ethanol] |
| 1.1 | 756 | 9.3 | COCC(O)c1ccc(-n2cnc3cc(Nc4ccc(C)nn4)ccc32)nc1-n1nc(C#N)cc1C (stereo not drawn) [Example 234, 1-[3-(1-Hydroxy-2-methoxy-ethyl)-6-[5-[(6-methylpyridazin-3-yl)amino]benzimidazol-1-yl]-2-pyridyl]-5-methyl-pyrazole-3-carbonitrile; formic acid] |
| 0.3 | 84 | 0.3 | Cc1ccc(Nc2cc3ncn(-c4ccc([C@H](C)O)c(-n5nc(C#N)cc5C)n4)c3cc2F)nn1 [Example 236, 1-[6-[6-Fluoro-5-[(6-methylpyridazin-3-yl)amino]benzimidazol-1-yl]-3-[(1S)-1-hydroxyethyl]-2-pyridyl]-5-methyl-pyrazole-3-carbonitrile] |
